In publication PMC11013252, “Exploration of the Antibacterial and Anti-Inflammatory Activity of a Novel Antimicrobial Peptide Brevinin-1BW” (Molecules, 2024):
In brackets after ≈: the same amount, converted by molar mass. Read-outs that look alike come from different tables or passages of the source. Positions of bridges follow the written chain, without caps; N, C: chain ends. Residues, ends and D or L forms follow the SMILES beside them.

Assays:
[1] = LPS-binding assay, checkerboard with S. aureus; assay type: cell-based; conditions: LPS higher than 5 μg/mL, 37 °C, 18 h, OD600
Experimental: The lipopolysaccharide-binding assay was performed using the checkerboard method. Dissolve and prepare LPS (Solarbio, Beijing, China) and Brevinin-1BW with Muller Hinton (MH), add LPS with a final concentration of 0–160 μg/mL along the X-axis, and add 100–0 μg/mL Brevinin-1BW along the Y-axis. Then, an additional 10^5 CFU of S. aureus was added to bring the final volume to 200 μL. It was incubated at 37 °C for 18 h, measure the OD 600 value, and the MIC value at different LPS concentrations was recorded. The experiment was repeated three times.

[2] = tested on: S. epidermidis (CI 1607BL1D39); assay: microbe, parasite or virus in culture; assay type: cell-based, Staphylococcus epidermidis; conditions: CI 1607BL1D39, 18 h
Experimental: (§1) The minimum inhibitory concentration (MIC) of the Brevinin-1BW was measured in 96-well microtiter plates according to the Clinical and Laboratory Standards Institute (CLSI). The activated strains were treated with Mueller Hinton Agar (MHA) solid medium. Single colonies were picked and expanded to the logarithmic growth phase, and the solution was diluted to 2 × 10^6 CFU/mL using the McFarland turbidity standard. The MIC was determined with the two-fold dilution method. Briefly, 50 μL of Mueller Hinton (MH) medium was added to a 96-well plate in advance. Then, 50 μL of AMP solution was added to the first well, and 50 μL was pipetted into the next well after mixing using a row gun, while 50 μL was discarded from the last well. Final concentrations of Brevinin-1BW were 100, 50, 25, 12.5, 6.25, and 3.125 μg/mL. A 50 μL volume of the diluted bacterial solution was added, and the final concentration of the bacterial solution was 1 × 10^6 CFU/mL. This was then placed into a 37 °C incubator for 18 h until the next day to observe the degree of turbidity of the 96-well plate and measure the absorbance of the wells at 600 nm with a multifunctional microplate reader (SpectraMax iD5, Molecular Devices, Sunnyvale, CA, USA). The absence of turbidity and the measured concentration of absorbance being less than the opposing group was taken as the MIC. The positive control used ampicillin at the same final concentration as Brevinin-1BW, the negative control used 50 μL of MH medium mixed with 50 μL of 2 × 10^6 CFU/mL bacterial solution, and the blank contained only 100 μL of MH medium. Three replicate wells were set up for each experiment, and each experiment was repeated three times. The MIC and all concentrations above the MIC of bacterial solution coated on MHA solid medium were placed into 37 °C incubator incubation for 18 h. The lowest concentration resulting in no colony growth was taken as the minimum bactericidal concentration (MBC).

[3] = tested on: E. coli (ATCC25922); assay: microbe, parasite or virus in culture; assay type: cell-based; conditions: ATCC25922, 18 h
Experimental: as §1

[4] = tested on: RAW264.7; assay type: cell-based, mouse; conditions: 24 h
Experimental: Medium was prepared to contain 10% FBS (TransGen Biotech, China) and 1% penicillin-streptomycin (Biosharp, Guangzhou, China). A549, U-2OS, HePG2, HaCaT, HUVEC, and 293T cells were cultured in DMEM medium (Gibco, New York, NY, USA). A375, HCT116, Hela, and RAW264.7 cells were cultured in RPMI 1640 medium (Gibco, New York, NY, USA). The cytotoxicity of Brevinin-1BW was determined using the Cell Counting Kit-8 as follows: detached the cells from cell culture flasks with 0.25% trypsin, counted with a hemocytometer plate and then prepared into a cell suspension containing 5 × 10^3 cells/mL. Then, 90 μL of the cell suspension was inoculated into a 96-well plate and incubated at 37 °C in a 5% CO2-humidified atmosphere for 24 h. A 10 μL volume of the peptide was subsequently added to each well and co-incubated with the cells for 24 h. Then, 10 μL of CCK8 (Abbkine, Wuhan, China) was added to each well and incubated for a further 2 h. The absorbance of each well at 450 nm was measured using a multifunctional enzyme marker. […] Three replicate wells were set up for each experiment, and each experiment was repeated three times. The formula for calculating the cell viability is shown below.

[5] = DPPH radical scavenging; conditions: at 3.125 μg/mL, 37 °C, 30 min in the dark, absorbance 517 nm; without concentration dependence
Experimental: DPPH^+ scavenging capacity: A 30 mL volume of […], Shanghai, China) solution was prepared with anhydrous ethanol and adjusted to reach an OD517 nm = 0.7. […] The Brevinin-1BW and DPPH solutions were mixed in equal volumes as the experimental group, incubated at 37 °C in the dark for 30 min, and then measured for the absorbance as A2. Vitamin C was used as the positive control. Its clearance rate was calculated according to the following formula: […]

[6] = tested on: E. coli (MDR ATCC35218); assay: microbe, parasite or virus in culture; assay type: cell-based, Escherichia coli; conditions: ATCC35218, 18 h
Experimental: as §1

[7] = tested on: HFF; assay type: cell-based, human; conditions: 24 h
[8] = tested on: S. aureus (ATCC 25923) biofilm formation; assay type: cell-based, Staphylococcus aureus; conditions: ATCC 25923, 24 h
Experimental: The plates were washed three times with sterile PBS and fixed with methanol for 0.5 h. After drying, the cells were stained with 1% crystal violet solution for 0.5 h. They were washed three times with deionized water and dissolved in 100 µL absolute ethanol. Absorbance was measured at 600 nm. Experiments were repeated four times independently.

CC[C@H](C)[C@@H]1NC(=O)[C@H](CCCCN)NC(=O)[C@@H](NC(=O)[C@H](Cc2ccccc2)NC(=O)[C@@H](NC(=O)[C@@H](NC(=O)[C@@H]2CCCN2C(=O)[C@H](CC(C)C)NC(=O)[C@H](Cc2ccccc2)NC(=O)[C@H](CO)NC(=O)[C@H](C)NC(=O)[C@H](C)NC(=O)[C@H](CC(C)C)NC(=O)CNC(=O)[C@H](C)NC(=O)[C@H](CC(C)C)NC(=O)[C@H](CC(C)C)NC(=O)[C@@H]2CCCN2C(=O)[C@H](CC(C)C)NC(=O)[C@@H](N)Cc2ccccc2)[C@@H](C)O)[C@@H](C)CC)CSSC[C@@H](C(=O)O)NC(=O)[C@H](CCCCN)NC(=O)[C@H](CCCNC(=N)N)NC(=O)[C@H](CO)NC1=O [Brevinin-1BW] (H-FLPLLAGLAASFLPTIFCKISRKC-OH; disulfide 18-24)
antibacterial activity against S. aureus in the presence of LPS [1]: gradually decreased | MBC [2]: 25 µg/mL (≈ 9.58 µM) | MIC [2]: 12.5 µg/mL (≈ 4.79 µM) | MBC [3]: >100 µg/mL | MIC [3]: 100 µg/mL (≈ 38.3 µM) | CC50 [4]: 32.33 ± 0.47 µg/mL (≈ 12.4 µM) | scavenging of DPPH radicals [5]: more than 70% | MBC [6]: >100 µg/mL | MIC [6]: >100 µg/mL | CC50 [7]: 33.99 ± 0.48 µg/mL (≈ 13 µM) | inhibition of biofilm formation ([8]; 0.5): 35.76% | inhibition of biofilm formation [8]; 2: 83.67%
